According to the NIST ThermoML archive (doi:10.1016/j.jct.2019.02.025):

Assays:
[1] = for mass density / kinematic viscosity: 101.33 kPa, Liquid; for mass density: Vibrating tube method; for surface tension liquid-gas / kinematic viscosity: Surface laser light scattering (SLLS)
[2] = refractive index (Na D-line) (dimensionless); conditions: 101.33 kPa, Liquid, Standard Abbe refractometry

CCCCCCCCCCCC(=O)OC [methyl dodecanoate]
Conditions	kinematic viscosity [m2/s]	mass density [kg/m3]	refractive index	surface tension liquid-gas [mN/m]
[1], 293.15 K	–	869.26	–	–
[1], 298.14 K	2.81e-06	–	–	23.49
[1], 303.15 K	–	861.25	–	–
[1], 313.15 K	–	853.32	–	–
[1], 323.15 K	–	845.42	–	–
[1], 323.16 K	1.9e-06	–	–	22.02
[1], 333.15 K	–	837.53	–	–
[1], 343.15 K	–	829.63	–	–
[1], 348.15 K	1.44e-06	–	–	21.12
[1], 353.15 K	–	820.84	–	–
[1], 363.15 K	–	813.94	–	–
[1], 373.15 K	–	806.11	–	–
[1], 373.17 K	1.14e-06	–	–	19.82
[1], 383.15 K	–	798.22	–	–
[1], 393.15 K	–	790.34	–	–
[1], 398.27 K	9.1e-07	–	–	18.66
[1], 403.15 K	–	782.4	–	–
[1], 413.15 K	–	774.39	–	–
[1], 423.15 K	–	766.34	–	–
[1], 423.25 K	7.36e-07	–	–	17.48
[1], 433.15 K	–	758.26	–	–
[1], 443.15 K	–	750.06	–	–
[1], 448.25 K	5.99e-07	–	–	15.99
[1], 453.15 K	–	741.94	–	–
[2], 278.15 K	–	–	1.43836	–
[2], 283.15 K	–	–	1.43629	–
[2], 288.15 K	–	–	1.43422	–
[2], 293.15 K	–	–	1.43216	–
[2], 298.15 K	–	–	1.43009	–
[2], 303.15 K	–	–	1.42802	–
[2], 308.15 K	–	–	1.42594	–
[2], 313.15 K	–	–	1.42383	–
[2], 318.15 K	–	–	1.42171	–
[2], 323.15 K	–	–	1.41959	–
[2], 328.15 K	–	–	1.4175	–
[2], 333.15 K	–	–	1.41542	–
[2], 338.15 K	–	–	1.41334	–
[2], 343.15 K	–	–	1.41127	–
[2], 348.15 K	–	–	1.40922	–
[2], 353.15 K	–	–	1.40717	–
[2], 358.15 K	–	–	1.40513	–

CCCCCCC(=O)OC [methyl heptanoate]
Conditions	kinematic viscosity [m2/s]	mass density [kg/m3]	refractive index	surface tension liquid-gas [mN/m]
[1], 293.15 K	–	879.29	–	–
[1], 298.13 K	1.22e-06	–	–	24.75
[1], 303.15 K	–	870.75	–	–
[1], 313.15 K	–	861.6	–	–
[1], 323.15 K	–	852.39	–	–
[1], 323.17 K	8.92e-07	–	–	23
[1], 333.15 K	–	843.15	–	–
[1], 343.15 K	–	833.87	–	–
[1], 348.19 K	6.79e-07	–	–	21.02
[1], 353.15 K	–	824.55	–	–
[1], 363.15 K	–	814.17	–	–
[1], 373.15 K	–	805.69	–	–
[1], 373.26 K	5.32e-07	–	–	18.72
[1], 383.15 K	–	796.11	–	–
[1], 393.15 K	–	786.44	–	–
[1], 398.29 K	4.34e-07	–	–	16.66
[1], 403.15 K	–	776.63	–	–
[1], 413.15 K	–	766.7	–	–
[1], 423.15 K	–	756.62	–	–
[1], 423.26 K	3.66e-07	–	–	14.43
[1], 433.15 K	–	746.31	–	–
[1], 448.29 K	3.14e-07	–	–	12.33
[2], 278.15 K	–	–	1.41865	–
[2], 283.15 K	–	–	1.41643	–
[2], 288.15 K	–	–	1.41421	–
[2], 293.15 K	–	–	1.41199	–
[2], 298.15 K	–	–	1.40976	–
[2], 303.15 K	–	–	1.40753	–
[2], 308.15 K	–	–	1.4053	–
[2], 313.15 K	–	–	1.40301	–
[2], 318.15 K	–	–	1.4007	–
[2], 323.15 K	–	–	1.39841	–
[2], 328.15 K	–	–	1.39614	–
[2], 333.15 K	–	–	1.39389	–
[2], 338.15 K	–	–	1.39167	–
[2], 343.15 K	–	–	1.38946	–
[2], 348.15 K	–	–	1.38724	–
[2], 353.15 K	–	–	1.38501	–
[2], 358.15 K	–	–	1.38276	–
